Values after ≈ are worked out from the molar mass of the structure shown. Like-named read-outs stand apart in the source and are kept apart here.
How the values were obtained:
albumin = target: T1, albumin (Bos taurus, UniProt P02769); assay: Albumin binding in phosphate-buffered fetal calf serum, 195Pt traces by SEC-ICP-MS; format: in vitro ADME; conditions: for bound to albumin after 1 h of incubation / bound to albumin at time point 0: 100 μM in FCS (150 mM phosphate buffer, pH 7.4), 37 °C
T1 construct: Serum proteins (including albumin) have a retention time of 2–4 min, with the albumin fraction eluting at 4.0 min; tissue Sigma-Aldrich; host or cells: fetal calf serum (whole serum, buffered with 150 mM phosphate pH 7.4)
Method: Subsequently, it was of interest how the observed divergent maleimide hydrolysis rates impact the albumin binding kinetics. Therefore, the different platinum(IV) complexes were incubated in phosphate-buffered fetal calf serum (FCS) at 37 °C over 25 h and ^195Pt traces were measured via size-exclusion chromatographyinductively coupled plasma mass spectrometry (SEC-ICP-MS). Serum proteins (including albumin) have a retention time of 2–4 min, with the albumin fraction eluting at 4.0 min (Figure S1) as part of the high-molecular weight fraction (HMWF) and unbound platinum(IV) complexes elute in the low-molecular weight fraction (LMWF) with retention times usually >5 min. Already at time point 0, ∼60% of Ox-OAc-PEG4-Mal (tR = 6.4 min) was bound to albumin at 4.0 min in the HMWF, which increased to ∼90% after 1 h of incubation (Figure 2A). The remaining 10% of the parental complex (at tR > 5 min) most likely either contained a hydrolyzed maleimide moiety, unable to bind albumin, or were conjugated to low-molecular weight sulfur-containing compounds. The formed platinum(IV)-albumin conjugate remained stable for more than 25 h. […] In the LMWF, only a small peak of still intact Ox-OAc-PIP-C2-Mal (tR 6.5 min) could be observed, while a major signal (∼35%) of most likely already hydrolyzed maleimide compound appeared at tR 5.8 min. This is in very good agreement with the very fast hydrolysis of the maleimide moiety shown above (see Figure 1).
FCS was purchased from Sigma-Aldrich and buffered with 150 mM phosphate pH 7.4 in order to guarantee a stable pH. The platinum(IV) complexes (5 mM) were dissolved in 150 mM phosphate buffer (pH 7.4) and diluted […] in the buffered serum to obtain a final concentration of 100 μM. The samples were incubated in the autosampler at 37 °C and analyzed at 0, 1, 4, 24, and 25 h time points. Between each sample a pure water blank was measured. For SEC-ICP-MS measurements an Agilent 1260 Infinity system coupled to an Agilent 7800 ICP-MS equipped with a dynamic reaction cell was used. Oxygen (purity 5.5, Messer Austria GmbH, Gumpoldskirchen, Austria) was used as reaction gas.

[1] = Aqueous solubility measurements (stepwise solvent addition, stereo microscope); format: physicochemical; conditions: for solubility: thermodynamic from solid, read-out: solubility, conc.
Source text: Thus, the impact of the pH value on the solubilities of the Ox-Ibu-PIP-X-Mal complexes was investigated. Commercially available 0.9% NaCl has a pH of roughly 5, but when acidified to pH 3, the solubilities of both Ox-Ibu-PIP-X-Mal complexes increased by a factor of 1.5. […] Expectedly, using phosphate buffer or phosphate-buffered saline (PBS) at pH 7.4 further decreased the solubility.
5% glucose and 0.9% NaCl solutions were purchased from B. Braun. 0.9% NaCl solutions were acidified to pH 3.0 using 1 M HCl and basified to pH 7.0 using 1 M NaOH. Aqueous buffers (citrate, PB, PBS) were prepared in 100 mM concentrations. One mg of compound was weighted using a Sartorius ME215P analytical balance and the solubility was investigated according to the following stepwise interval: +1 μL in the volume range 0–10 μL; +10 μL in the volume range 10–100 μL; +100 μL in the volume range 100–1000 μL; +1000 μL in the volume range 1000–5000 μL. Dissolution of the sample was investigated using a Leica M80 routine stereo microscope (50× magnification) until no solid particles were observed.

[2] = Hydrolytic stability of the maleimide in phosphate buffer, UHPLC; format: physicochemical; conditions: 1 mM, 150 mM phosphate buffer pH 7.4, 20 °C
Method: It is known from literature that most maleimides are prone to hydrolysis at physiological pH.[38] Consequently, the hydrolytic stabilities of the three oxaliplatin(IV)-acetato complexes bearing the piperazine maleimides were studied in comparison to the reference complex Ox-OAc-PEG4-Mal. The hydrolysis of the platinum(IV)-acetato complexes was investigated in phosphate buffer at pH 7.4 and 20 °C over 5 h and the amount of remaining intact parental complex was monitored with ultrahigh-performance liquid chromatography (UHPLC) (Figure 1). Ox-OAc-PIP-C2-Mal hydrolyzed rapidly, with only traces of intact platinum(IV)-maleimide remaining after 1 h incubation time. […] These dramatic differences are in line with some model maleimide compounds reported in literature, also containing piperazine moieties.[38] The strong inductive effects of the protonated quaternary nitrogen of the piperazine can explain the extremely fast hydrolysis of Ox-OAc-PIP-C2-Mal.
Phosphate buffer (150 mM, pH 7.4) containing 1 mM platinum compound was incubated at 20 °C. The reaction was monitored on a Thermo Scientific Dionex UltiMate 3000 UHPLC-system using a Waters Acquity UPLC BEH C18 1.7 μm 3.0 mm × 50 mm column. Milli-Q water, containing 0.1% formic acid, and acetonitrile containing 0.1% formic acid were used as eluents. A gradient of 5–95% over 5 min was used. […]

[3] = 0.9% NaCl solution, pH 5, saline or isotonic, 0.9% NaCl
[4] = 5% glucose solution, saline or isotonic, 5% glucose

T1 sequence (P02769 25-607): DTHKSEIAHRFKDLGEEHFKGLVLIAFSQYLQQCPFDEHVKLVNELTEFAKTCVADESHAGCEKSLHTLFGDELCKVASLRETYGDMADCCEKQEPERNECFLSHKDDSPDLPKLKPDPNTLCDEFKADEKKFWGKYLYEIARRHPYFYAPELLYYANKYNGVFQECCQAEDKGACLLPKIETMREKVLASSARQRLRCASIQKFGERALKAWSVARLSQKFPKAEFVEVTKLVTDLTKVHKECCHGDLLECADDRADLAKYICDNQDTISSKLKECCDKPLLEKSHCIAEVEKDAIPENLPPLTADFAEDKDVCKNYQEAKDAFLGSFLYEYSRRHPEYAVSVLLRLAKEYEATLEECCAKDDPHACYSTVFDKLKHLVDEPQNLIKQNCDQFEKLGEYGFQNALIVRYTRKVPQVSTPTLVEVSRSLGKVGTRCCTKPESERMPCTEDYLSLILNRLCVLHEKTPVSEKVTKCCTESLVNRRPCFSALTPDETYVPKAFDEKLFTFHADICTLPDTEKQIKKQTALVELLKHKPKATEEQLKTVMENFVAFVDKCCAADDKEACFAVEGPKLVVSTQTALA

SMILES	bound to albumin after 1 h of incubation (albumin)	bound to albumin at time point 0 (albumin)	solubility [1, 3]	solubility [1, 4]	also measured
CC(=O)[O][Pt]12([O]C(=O)NCCN3CCN(CCCCCN4C(=O)C=CC4=O)CC3)([NH][C@@H]3CCCC[C@H]3[NH]1)[O]C(=O)C(=O)[O]2 [Ox-OAc-PIP-C5-Mal, (OC-6–34)-Acetato-[(1R,2R)-1,2-cyclohexanediamino][(2-(4-(5-(2,5-dioxo-2,5-dihydro-1H-pyrrol-1-yl)pentyl)piperazin-1-yl)ethyl)carbamato]oxalatoplatinum(IV)]	~95%	69%			
CC(C)[C@H](NC(=S)NCCN1CCN(CCOCCN2C(=O)C=CC2=O)CC1)C(=O)N[C@@H](CCCNC(N)=O)C(=O)Nc1ccc(CO)cc1 [Mal-O-PIP-ThioU-ValCitPAB-OH, (S)-2-((S)-2-(3-(2-(4-(2-(2-(2,5-Dioxo-2,5-dihydro-1H-pyrrol-1-yl)ethoxy)ethyl)piperazin-1-yl)ethyl)thioureido)-3-methylbutanamido)-N-(4-(hydroxymethyl)phenyl)-5-ureidopentanamide]			1400 mM (≈ 1010 mg/mL)	600 mM (≈ 431 mg/mL)	
CC(=O)[O][Pt]12([O]C(=O)NCCN3CCN(CCN4C(=O)C=CC4=O)CC3)([NH][C@@H]3CCCC[C@H]3[NH]1)[O]C(=O)C(=O)[O]2 [Ox-OAc-PIP-C2-Mal, (OC-6–34)-Acetato-[(1R,2R)-1,2-cyclohexanediamino][(2-(4-(2-(2,5-dioxo-2,5-dihydro-1H-pyrrol-1-yl)ethyl)piperazin-1-yl)ethyl)carbamato]oxalatoplatinum(IV)]		~60%			signal of most likely already hydrolyzed maleimide compound in LMWF (tR 5.8 min) (albumin; FCS, pH 7.4, 37 °C): ~35%; course of albumin binding over time (albumin; FCS, pH 7.4, 37 °C, over 25 h): did not further increase over time
CC(C)[C@H](NC(=O)CCC(=O)NCCN1CCN(CCOCCN2C(=O)C=CC2=O)CC1)C(=O)N[C@@H](CCCNC(N)=O)C(=O)Nc1ccc(CO)cc1 [Mal-O-PIP-Succ-ValCitPAB-OH, N1-(2-(4-(2-(2-(2,5-Dioxo-2,5-dihydro-1H-pyrrol-1-yl)ethoxy)ethyl)piperazin-1-yl)ethyl)-N4-((S)-1-(((S)-1-((4-(hydroxymethyl)phenyl)amino)-1-oxo-5-ureidopentan-2-yl)amino)-3-methyl-1-oxobutan-2-yl)succinamide]			1300 mM (≈ 985 mg/mL)	600 mM (≈ 455 mg/mL)	
CC(C)C(NC(=O)CCOCCOCCOCCOCCN1C(=O)C=CC1=O)C(=O)NC(CCCNC(N)=O)C(=O)Nc1ccc(CO)cc1 (stereo not shown) [Mal-PEG4-ValCitPAB-OH, reference compound]			40 mM (≈ 28.3 mg/mL)	20 mM (≈ 14.1 mg/mL)	solubility, conc. ([1]; 0.9% NaCl): 35 mM (≈ 24.7 mg/mL); solubility, conc. ([1]; 5% glucose): 24 mM (≈ 17 mg/mL)
CC(C)[C@H](NC(=O)CCN1CCN(CCOCCN2C(=O)C=CC2=O)CC1)C(=O)N[C@@H](CCCNC(N)=O)C(=O)Nc1ccc(CO)cc1 [Mal-O-PIP-ValCitPAB-OH, (S)-2-((S)-2-(3-(4-(2-(2-(2,5-Dioxo-2,5-dihydro-1H-pyrrol-1-yl)ethoxy)ethyl)piperazin-1-yl)propanamido)-3-methylbutanamido)-N-(4-(hydroxymethyl)phenyl)-5-ureidopentanamide]			1500 mM (≈ 1030 mg/mL)	700 mM (≈ 481 mg/mL)	
CC(=O)[O][Pt]12([O]C(=O)NCCN3CCN(CCOCCN4C(=O)C=CC4=O)CC3)([NH][C@@H]3CCCC[C@H]3[NH]1)[O]C(=O)C(=O)[O]2 [Ox-OAc-PIP-O-Mal, (OC-6–34)-Acetato-[(1R,2R)-1,2-cyclohexanediamino][(2-(4-(2-(2-(2,5-dioxo-2,5-dihydro-1H-pyrrol-1-yl)ethoxy)ethyl)piperazin-1-yl)ethyl)carbamato]oxalatoplatinum(IV)]	~95%	75%			
CC(=O)[O][Pt]12([O]C(=O)NCCOCCOCCOCCOCCN3C(=O)C=CC3=O)([NH][C@@H]3CCCC[C@H]3[NH]1)[O]C(=O)C(=O)[O]2 [Ox-OAc-PEG4-Mal, (OC-6–34)-Acetato-[(1R,2R)-1,2-cyclohexanediamino][(14-(2,5-dioxo-2,5-dihydro-1H-pyrrol-1-yl)-3,6,9,12-tetraoxatetradecyl)carbamato]oxalatoplatinum(IV)]	~90%	~60%			time the formed platinum(IV)-albumin conjugate remained stable (albumin; FCS, pH 7.4, 37 °C): over 25 h; remaining parental complex not bound to albumin (tR > 5 min) (albumin; FCS, pH 7.4, 37 °C, after 1 h): 10%; intact maleimide / intact complex remaining after 5 h incubation [2]: ~70%
